Assay [1] addresses T1, Angiotensin II receptor (AT-1) type-1 (Rattus norvegicus, UniProt P29089+P25095).
T1 sequence (P29089 whole entry): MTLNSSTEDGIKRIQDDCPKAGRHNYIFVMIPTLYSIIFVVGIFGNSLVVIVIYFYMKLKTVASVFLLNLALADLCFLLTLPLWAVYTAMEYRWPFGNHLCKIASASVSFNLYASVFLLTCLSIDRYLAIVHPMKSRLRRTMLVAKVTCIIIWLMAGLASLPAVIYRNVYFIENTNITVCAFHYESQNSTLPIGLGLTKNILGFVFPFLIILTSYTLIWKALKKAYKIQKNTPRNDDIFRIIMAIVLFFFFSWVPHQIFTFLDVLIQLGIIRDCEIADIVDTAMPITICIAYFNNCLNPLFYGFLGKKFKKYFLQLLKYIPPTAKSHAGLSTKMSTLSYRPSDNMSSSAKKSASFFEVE
T1 sequence (P25095 whole entry): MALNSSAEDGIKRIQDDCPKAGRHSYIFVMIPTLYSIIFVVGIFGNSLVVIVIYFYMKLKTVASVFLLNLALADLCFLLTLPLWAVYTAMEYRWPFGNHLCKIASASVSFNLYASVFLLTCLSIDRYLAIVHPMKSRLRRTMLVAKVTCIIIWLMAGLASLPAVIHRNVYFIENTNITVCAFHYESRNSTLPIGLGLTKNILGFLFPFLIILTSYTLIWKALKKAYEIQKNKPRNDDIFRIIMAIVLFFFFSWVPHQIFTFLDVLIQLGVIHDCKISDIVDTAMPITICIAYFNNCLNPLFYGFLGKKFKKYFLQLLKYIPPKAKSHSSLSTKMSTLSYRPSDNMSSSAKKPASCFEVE
Briefly: Compound was evaluated in a binding assay using Chinese hamster ovary (CHO) cells stably expressing the rat Angiotensin II receptor, type 1. Format: cell-based.

Assay [2] deals with T1, Angiotensin II receptor (AT-1) type-1. Briefly: Compound was evaluated in a radioligand binding assay to displace [125I]-Ang II from Angiotensin II receptor, type 1 in rat liver membranes. Format: cell membranes, Membrane.

Regarding `NC(N)=NCCC[C@H](NC(=O)[C@@H](N)CC(=O)O)C(=O)N[C@H]1C[C@H]2SC[C@@H](C(=O)N[C@@H](Cc3c[nH]cn3)C(=O)N3CCC[C@H]3C(=O)N[C@@H](Cc3ccccc3)C(=O)O)NC(=O)[C@H](Cc3ccc(O)cc3)N2C1=O`, the IC50 entry in assay [1] and in assay [2] was “>= 10 uM” each time.

The values are drawn from ChEMBL document CHEMBL1132582, “Bicyclic tripeptide mimetics with reverse turn inducing properties” (J Med Chem, 1999).
